# Laboratory results taken from ChEMBL document CHEMBL5303304, “EUbOPEN Chemogenomics Library - IncuCyte” (2023).
# Tests used:
# Format in all cases: toxicity, cell-based
# HEK-293T = assay: Incucyte cell viability with HEK293T; conditions: human, 10 µM, compound concentration 10 uM
# Fibroblast = assay: Incucyte cell viability with human fibroblast; conditions: 10 µM, compound concentration 10 uM
# U2OS = assay: Incucyte cell viability with U2OS; conditions: human, 10 µM, compound concentration 10 uM
# Note: unitless GR value; below 1 slowed growth and below 0 cell loss.
Structure (SMILES),"Growth Rate (HEK-293T; 0 h, replicate number 2)","Growth Rate (HEK-293T; 6 h, replicate number 1)","Growth Rate (HEK-293T; 6 h, replicate number 2)","Growth Rate (HEK-293T; 12 h, replicate number 1)","Growth Rate (HEK-293T; 12 h, replicate number 2)","Growth Rate (HEK-293T; 18 h, replicate number 1)","Growth Rate (HEK-293T; 24 h, replicate number 1)","Growth Rate (Fibroblast; 18 h, replicate number 2)","Growth Rate (Fibroblast; 24 h, replicate number 2)","Growth Rate (U2OS; 0 h, replicate number 1)","Growth Rate (U2OS; 6 h, replicate number 1)","Growth Rate (U2OS; 12 h, replicate number 1)","Growth Rate (U2OS; 18 h, replicate number 1)","Growth Rate (HEK-293T; 0 h, replicate number 1)","Growth Rate (HEK-293T; 18 h, replicate number 2)","Growth Rate (HEK-293T; 24 h, replicate number 2)","Growth Rate (Fibroblast; 0 h, replicate number 2)","Growth Rate (Fibroblast; 6 h, replicate number 1)","Growth Rate (Fibroblast; 18 h, replicate number 1)","Growth Rate (U2OS; 12 h, replicate number 2)",further results
CN[C@@H](C)C(=O)N[C@H](C(=O)N1CCC[C@H]1c1nc(C(=O)c2ccc(F)cc2)cs1)C1CCCCC1 [LCL-161],-0.96,0.22,0.84,0.4,0.95,0.53,0.84,0.88,0.85,-0.08,0.45,0.96,0.91,–,–,–,–,–,–,–,"Growth Rate (Fibroblast; 6 h, replicate number 2): 0.19"
Cc1nc2c(cc1F)c(-c1nnc3c(n1)NC(=O)C3(C)C)nn2Cc1cccc(F)c1F,0.48,0.97,0.57,0.95,0.74,0.75,0.79,–,–,–,0.9,–,–,0.61,0.8,0.91,0.67,0.59,0.85,0.84,"Growth Rate (Fibroblast; 0 h, replicate number 1): -1; Growth Rate (Fibroblast; 24 h, replicate number 1): 0.94; Growth Rate (U2OS; 0 h, replicate number 2): 0.99; Growth Rate (U2OS; 6 h, replicate number 2): 0.58; Growth Rate (U2OS; 18 h, replicate number 2): 0.95"
Cc1cc(CN)cc(C)c1-c1ncn(C)c1-c1ccnc2cc(F)ccc12.Cl,0.04,0.92,–,–,–,–,–,0.81,0.96,–,0.34,0.92,–,–,–,–,-0.39,0.02,0.6,–,"Growth Rate (Fibroblast; 0 h, replicate number 1): -1; Growth Rate (Fibroblast; 6 h, replicate number 2): -0.26; Growth Rate (Fibroblast; 12 h, replicate number 1): 0.77; Growth Rate (Fibroblast; 24 h, replicate number 1): 0.89; Growth Rate (U2OS; 6 h, replicate number 2): 0.85"
Cn1cc(-n2cnc3c(NCc4nc5cc(Cl)c(Cl)cc5[nH]4)nc(N4CCOCC4)nc32)cn1,0.65,-0.17,-0.51,-0.21,-0.56,-0.23,-0.18,-0.06,0,-0.99,–,0.64,0.1,-0.86,-0.48,-0.36,-0.31,0.08,0.46,-0.72,"Growth Rate (Fibroblast; 0 h, replicate number 1): -1; Growth Rate (Fibroblast; 6 h, replicate number 2): -0.32; Growth Rate (Fibroblast; 12 h, replicate number 1): 0.37; Growth Rate (Fibroblast; 12 h, replicate number 2): -0.22; Growth Rate (Fibroblast; 24 h, replicate number 1): 0.54; Growth Rate (U2OS; 0 h, replicate number 2): -0.97; Growth Rate (U2OS; 6 h, replicate number 2): -0.74; Growth Rate (U2OS; 18 h, replicate number 2): -0.54; Growth Rate (U2OS; 24 h, replicate number 1): -0.09; Growth Rate (U2OS; 24 h, replicate number 2): -0.53"
COC(=O)c1sccc1S(=O)(=O)Nc1ccc(Nc2ccccc2)cc1OC,-0.92,–,0.93,–,0.77,–,–,0.95,0.74,-0.11,0.61,0.91,0.81,–,–,–,0.71,–,–,–,"Growth Rate (Fibroblast; 6 h, replicate number 2): 0.48; Growth Rate (Fibroblast; 12 h, replicate number 2): 0.47; Growth Rate (U2OS; 6 h, replicate number 2): 0.91; Growth Rate (U2OS; 18 h, replicate number 2): 0.9; Growth Rate (U2OS; 24 h, replicate number 2): 0.82"
CCC(C)(C)CC[C@H](NC(=O)N1CCOCC1)C(=O)NC1(C#N)CCN(C)CC1,-0.17,–,–,–,0.91,–,–,0.95,0.95,0.09,1,–,–,0.93,–,–,–,0.76,–,0.96,"Growth Rate (Fibroblast; 6 h, replicate number 2): -0.59; Growth Rate (Fibroblast; 12 h, replicate number 2): 0.5; Growth Rate (U2OS; 0 h, replicate number 2): -0.03; Growth Rate (U2OS; 24 h, replicate number 1): 0.88"
COc1cc2ncnc(Nc3ccc(Oc4ccccc4)cc3C)c2cc1OC.Cl,-0.45,–,–,–,–,–,–,–,–,0.5,–,–,–,-0.14,–,–,-0.78,0.3,–,0.74,"Growth Rate (Fibroblast; 0 h, replicate number 1): -0.71; Growth Rate (Fibroblast; 12 h, replicate number 1): -1; Growth Rate (U2OS; 0 h, replicate number 2): -0.92; Growth Rate (U2OS; 6 h, replicate number 2): 0.35"
CN(C)CCCn1cc(C2=C(c3c[nH]c4ccccc34)C(=O)NC2=O)c2ccccc21 [GF-109203],-0.46,–,–,–,0.81,–,–,0.65,0.41,-0.01,–,–,0.94,-0.26,0.99,0.98,-0.49,-0.72,–,–,"Growth Rate (Fibroblast; 12 h, replicate number 1): -1; Growth Rate (U2OS; 24 h, replicate number 1): 0.8; Growth Rate (U2OS; 24 h, replicate number 2): 0.82"
CC(=O)c1ccc2c(c1)/C(=C(/NC1CCN(C)CC1)c1ccc3c(c1)OCO3)C(=O)N2,0.02,-0.84,-0.95,-0.7,-0.83,-0.5,-0.37,0.48,0.37,–,0.57,0.52,0.32,-0.53,-0.63,-0.45,–,–,0.78,0.33,"Growth Rate (Fibroblast; 12 h, replicate number 2): 0.74; Growth Rate (Fibroblast; 24 h, replicate number 1): 0.63; Growth Rate (U2OS; 18 h, replicate number 2): 0.13; Growth Rate (U2OS; 24 h, replicate number 1): 0.21; Growth Rate (U2OS; 24 h, replicate number 2): 0.13"
Cc1cc(C2CCCNC2)ccc1Nc1ncc(Br)c(NCc2cccc3c2C(C)(C)C(=O)N3)n1 (stereo not drawn),–,0.39,0.05,0.08,0.09,0.07,-0.01,0.49,0.32,-0.95,–,–,0.88,–,0.12,0.13,–,–,0.61,0.61,"Growth Rate (Fibroblast; 12 h, replicate number 2): 0.81; Growth Rate (Fibroblast; 24 h, replicate number 1): 0.34; Growth Rate (U2OS; 6 h, replicate number 2): 0.86; Growth Rate (U2OS; 18 h, replicate number 2): 0.46; Growth Rate (U2OS; 24 h, replicate number 1): 0.8; Growth Rate (U2OS; 24 h, replicate number 2): 0.37"
CNCc1ccc(-c2cc(-c3nc(-c4ccc(S(=O)(=O)C(C)C)cc4)cnc3N)on2)cc1 [BERZOSERTIB],-0.99,-0.67,-0.05,-0.49,-0.51,-0.3,-0.24,-0.14,-0.29,-1,–,-0.83,0.15,–,-0.38,-0.26,–,–,0.32,0.45,"Growth Rate (Fibroblast; 0 h, replicate number 1): -1; Growth Rate (Fibroblast; 12 h, replicate number 2): 0.24; Growth Rate (Fibroblast; 24 h, replicate number 1): -0.05; Growth Rate (U2OS; 18 h, replicate number 2): 0.23; Growth Rate (U2OS; 24 h, replicate number 1): 0.31; Growth Rate (U2OS; 24 h, replicate number 2): 0.19"
